# In patent US20060148763A1, “Compounds and methods for regulating triglyceride levels” (priority 2005, published 2006):
# Tests used:
# Type in all cases: in vivo, human
# serum triglyceride (TG) = experiment: Phase II cross-over study of P5P alone and with lisinopril in hypertensive type 2 diabetic patients: triglycerides; conditions: for TG change, 16 wk vs. baseline (b): Lisinopril/P5P therapy, patients with TG ≧1.7 mmol/L; for reduction in serum TG levels vs. baseline: patients with elevated TG (>1.7 mmol/L) at baseline
# Protocol: (§1) Objective—A phase II clinical study was conducted to determine the effects of pyridoxal-5′-phosphate in combination with lisinopril on blood pressure and metabolic function in hypertensive patients with type 2 diabetes.
# (§2) Summary of Study Design—The phase II study was a randomized, parallel group, cross-over, double-blinded to study medication, placebo-controlled comparison of P5P BID at total daily doses of 100, 300, or 1000 mg alone and in combination with 20 mg lisinopril given once daily (QD). In order to protect against antihypertensive and metabolic carry-over effects of lisinopril, all patients were randomized in 2 different treatment sequences. Patients randomized in the first treatment sequence receive an 8-week treatment with lisinopril 20 mg and P5P (or placebo) and then an 8-week treatment with P5P alone (or placebo). Patients randomized in the second treatment sequence receive an 8-week treatment with P5P alone and then an 8-week treatment with lisinopril 20 mg and P5P (or placebo). In each treatment sequence, all patients were randomized to P5P at the different prespecified dosages.
# (§3) Mean trough sitting and standing BP were measured at each visit. Twenty-four hour ambulatory BP monitoring (ABPM) were performed at Visit 2 prior to randomization (end of washout period) and after week 8 (Visit 5) and week 16 (Visit 8) weeks of active therapy. Laboratory tests were performed at screening (Visit 1), prior to randomization (Visit 2), at week 2 (Visit 3a), week 8 (Visit 5), week 10 (Visit 6a), and at week 16 (Visit 8).
# Treatment Plan—Two to Four-week Washout (Baseline) Period. Patients were instructed on the proper procedure for discontinuing their current antihypertensive medications (discontinuation or tapering) according to the manufacturer's label specifications. If a patient's current antihypertensive treatment needed to be tapered earlier, the Investigator complied with the corresponding timelines before randomization. With the exception of any tapering off of prior therapy, if any, no other anti-hypertensive medication was given to the patient during the washout period. Patients continued any existing diabetic treatment with sulfonylureas (tolbutamide, tolazamide, acetohexamide, chlorpropamide and second generation glyburide, glipizide, glimepiride), D-Phenylalanine derivatives, metformin, thiazolidinediones, acarbose, miglitol, and/or insulin throughout the study. Patients received placebo to be taken twice daily during the washout period. Standard diabetic medication was maintained throughout study. The duration of the washout period was two to four weeks, at the discretion of the Investigator taking into consideration whether the patient's blood pressure had stabilized following removal of any prior antihypertensive medication. […]
# serum LDL = experiment: Phase II cross-over study of P5P alone and with lisinopril in hypertensive type 2 diabetic patients: LDL; conditions: for LDL change, 16 wk vs. baseline (b): LDL non-stratified data; for reduction in serum LDL levels: patients having elevated LDL levels (>2.59 mmol/L)
# Protocol: as §1, §2, §3
# (§4) Treatment Plan—Two to Four-week Washout (Baseline) Period. Patients were instructed on the proper procedure for discontinuing their current antihypertensive medications (discontinuation or tapering) according to the manufacturer's label specifications. If a patient's current antihypertensive treatment needed to be tapered earlier, the Investigator complied with the corresponding timelines before randomization. With the exception of any tapering off of prior therapy, if any, no other anti-hypertensive medication was given to the patient during the washout period. Patients continued any existing diabetic treatment with sulfonylureas (tolbutamide, tolazamide, acetohexamide, chlorpropamide and second generation glyburide, glipizide, glimepiride), D-Phenylalanine derivatives, metformin, thiazolidinediones, acarbose, miglitol, and/or insulin throughout the study. Patients received placebo to be taken twice daily during the washout period. Standard diabetic medication was maintained throughout study. The duration of the washout period was two to four weeks, at the discretion of the Investigator taking into consideration whether the patient's blood pressure had stabilized following removal of any prior antihypertensive medication.
# (§5) Active (Study) Medication Period: After the washout period, eligible patients were randomized to one of the 2 following sequences of treatment for 16 weeks.
# (§6) Week 0 to 8: Treatment period (P5P alone (or placebo) or P5P (or placebo) and Lisinopril)
# (§7) Week 8 to 16: Treatment period (P5P alone (or placebo) or P5P (or placebo) and Lisinopril)
# (§8) Study Groups—The patients were randomized into one of […] groups:
# (§9) Sequence 1 P5P 300 mg and then P5P 300 mg+Lisinopril 20 mg
# (§10) Sequence 2 P5P 300 mg+Lisinopril 20 mg and then P5P 300 mg alone
# (§11) All medications were taken at the same time each day during washout and treatment periods:
# (§12) Other Efficacy Endpoints—Analytical efficacy measurements, including markers of metabolic function (insulinemia, fasting serum glucose, glycated hemoglobin, LDL, HDL, non-HDL and triglycerides), endothelial function (ICAM-1, VCAM-1, E-selectin and albuminuria), kidney function (creatinine, glomular filtration rate), CRP and homocysteine, were conducted on blood samples taken on Visits 2, 5 and 8. Samples were sent to a central laboratory for analysis.
# [1] = test system: total serum cholesterol (TC); experiment: Phase II cross-over study of P5P alone and with lisinopril in hypertensive type 2 diabetic patients: total cholesterol; conditions: for reduction in serum TC levels (placebo corrected): patients having elevated TC levels (>5.15 mmol/L)
# Protocol: as §1, §2, §3, §4, §5, §6, §7, §8, §9, §10, §11, §12
# Non-HDL = experiment: Phase II cross-over study of P5P alone and with lisinopril in hypertensive type 2 diabetic patients: non-HDL
# Protocol: as §1, §2, §3, §4, §5, §6, §7, §8, §9, §10, §11, §12
# [2] = P5P 300 mg, patients with LDL >2.59 mmol/L
# [3] = P5P 300 mg, patients with TC >5.18 mmol/L
# [4] = P5P 300 mg, patients with Non HDL >3.34 mmol/L
smiles,measurement,setting,value
"Cc1ncc(COP(=O)(O)O)c(C=O)c1O [P5P, pyridoxal-5′-phosphate]","TG change, 16 wk vs. baseline (b)",serum triglyceride (TG); P5P 300 mg daily (BID),−0.70 mmol/L (p = 0.04)b
same,reduction in serum TG levels vs. baseline,serum triglyceride (TG); P5P 300 mg,about 0.70 mmol/L
same,"TG change, 16 wk vs. baseline (b)",serum triglyceride (TG); P5P 1000 mg daily (BID),−0.56 mmol/L (p = 0.12)b
same,reduction in serum TG levels vs. baseline,serum triglyceride (TG); P5P 1000 mg,about 0.56 mmol/L
same,"LDL change, 16 wk vs. baseline (b)",serum LDL; P5P 300 mg,−0.15 mmol/L (p = 0.194)b
same,reduction in serum LDL levels,serum LDL; P5P 300 mg,about 0.41 mmol/L
same,LDL change,serum LDL; [2],−0.41 mmol/L (p = 0.04)
same,LDL reduction,serum LDL; [2],(12% reduction)
same,"LDL change, 16 wk vs. baseline (b)",serum LDL; P5P 1000 mg,−0.15 mmol/L (p = 0.197)b
same,reduction in serum LDL levels,serum LDL; P5P 1000 mg,about 0.53 mmol/L
same,LDL change,"serum LDL; P5P 1000 mg, patients with LDL >2.59 mmol/L",−0.53 mmol/L (p = 0.075)
same,average reduction in serum LDL levels (placebo corrected),serum LDL; patients taking 300 mg or 1000 mg of P5P,0.27 mmol/L
same,TC change vs baseline (b),"[1]; P5P 300 mg, TC non-stratified",−0.18 mmol/L (p = 0.273)b
same,reduction in serum TC levels (placebo corrected),[1]; P5P 300 mg,about 0.91 mmol/L
same,TC change,[1]; [3],−0.91 mmol/L (p = 0.02)
same,TC reduction vs baseline (b),[1]; [3],(15.7%)b
same,TC change vs baseline (b),"[1]; P5P 1000 mg, TC non-stratified",−0.29 mmol/L (p = 0.075)b
same,reduction in serum TC levels (placebo corrected),[1]; P5P 1000 mg,about 1.03 mmol/L
same,TC change vs baseline (b),"[1]; P5P 1000 mg, patients with TC >5.18 mmol/L",−1.03 mmol/L (p = 0.001)b
same,Non-HDL change vs baseline (b),"Non-HDL; P5P 300 mg, non-stratified, calculated number, not measured in plasma",−0.21 mmol/L (p=)b
same,Non-HDL change,Non-HDL; [4],−0.68 mmol/L (p = 0.029)
same,Non-HDL reduction vs baseline (b),Non-HDL; [4],(15%)b
same,reduction in non-HDL compared to baseline,"Non-HDL; P5P 300 mg, patients with non-HDL >3.34 mmol/L at baseline",0.68 mmol/L
same,Non-HDL change vs baseline (b),"Non-HDL; P5P 1000 mg, non-stratified, calculated number, not measured in plasma",−0.26 mmol/L (p = 0.089)b
same,Non-HDL change vs baseline (b),"Non-HDL; P5P 1000 mg, patients with Non HDL >3.34 mmol/L",−0.71 mmol/L (p = 0.007)b
same,decrease in non-HDL vs. baseline,"Non-HDL; P5P 1000 mg, patients with non-HDL. 3.34 mmol/L",0.71 mmol/L
